Results as given in patent EP0082266A1, “Substituted 1,5-diaminopentanes, their preparation and pharmaceutical compositions containing them” (BASF Aktiengesellschaft, priority 1981, dated 1983).
Structures can show the parent of a compound that is named as a salt.

Key:
[1] = tested on: Aconitinarrhythmie der Ratte; experiment: Antiarrhythmic activity, aconitine-induced arrhythmia in the anaesthetised rat (oral dosing, aconitine i.v. infusion 60 min later); type: in vivo, Ratten (Stamm: Sprague Dawley); conditions: for ED50: Rattus norvegicus, po, 1 h, read-out: Wirksame Dosis ED 50 %; for R.W. = Relative Wirksamkeit, bezogen auf Chinidin = 1,00 / Maximale Wirkung Δ % (Verlängerung der Aconitinfusionsdauer): rat, per os; for R.W. = Relative Wirksamkeit, bezogen auf Chinidin = 1,00: relative potency from ED 50 %; for Maximale Wirkung Δ % (Verlängerung der Aconitinfusionsdauer): effect of the maximal tolerated dose
Procedure: Zur Bestimmung der antiarrhythmischen Wirksamkeit werden die Substanzen Ratten (Stamm: Sprague Dawley, Gewicht 200 bis 250 g) oral appliziert. 45 min später werden die Tiere mit Thiobutabarbital-Natrium (100,0 mg/kg i.p.) narkotisiert. Als arrhythmogene Substanz dient Aconitin, das 60 min nach Substanzapplikation i.v. infundiert wird (Dosierungsgeschwindigkeit: 0,005 mg/kg x min). Bei nicht behandelten Tieren (N = 52) treten nach 2,74 + 0,07 min im EKG Arrhythmien auf, deren Eintritt durch Antiarrhythmika dosisabhängig verzögert werden kann.
Aus den linearen Beziehungen zwischen log Dosis (mg/kg) der Prüfsubstanzen und der relativen Verlängerung der Aconitin--Infusionsdauer (Δ%) wird die Dosis bestimmt, welche die Infusionsdauer um 50 % verlängert (ED 50 %).
(§1) Zur weiteren Charakterisierung der Substanzen wird aus der in den Experimenten verwendeten dezimalgeometrischen Dosenfolge (Faktor [formula] ) die antiarrhythmische Wirkung der maximal tolerierten Dosis bestimmt.

[2] = tested on: Ratte; experiment: Acute toxicity / tolerability in the rat after oral dosing (toxic symptoms: changes of baseline ECG, cyanosis, convulsions); type: in vivo; conditions: per os; for Toxizität Dosis: dose after which the first toxic symptoms are observed
Description: as §1
(§2) Ferner wird die Dosis ermittelt, bei welcher toxische Symptome (Veränderungen des Ausgangs-EKG, Cyanose, Krämpfe) auftreten.

[3] = as above; type: in vivo; conditions: in vivo, po; for MTD: per os, highest tolerated dose, at which the maximal effect was read, read-out: Maximale Wirkung Dosis (maximal tolerierte Dosis); for selectivity ratio: read-out: Q = Toxische Dosis / ED 50 %
Description: as §1, §2

Structure (SMILES)	ED50 [1] [mg/kg]	R.W. = Relative Wirksamkeit, bezogen auf Chinidin = 1,00 [1]	Toxizität Dosis [2] [mg/kg]	MTD [3] [mg/kg]	selectivity ratio [3]	Maximale Wirkung Δ % (Verlängerung der Aconitinfusionsdauer) [1] [%]	Q = Toxische Dosis / ED 50 % ([2]; therapeutic width)
CC(C)C(CN)(CCCN(C)CCc1ccccc1)c1ccccc1 (stereo not drawn) [Beispiel 1, 1-Amino-2-isopropyl-2-phenyl-5-(phenethyl)methylamino-pentan]	29.4	1,48					
CC(C)C(CN)(CCCNCCc1ccccc1)c1ccccc1.Cl.Cl (stereo not drawn) [Beispiel 6, 1-Amino-2-isopropyl-2-phenyl-5-(phenethyl)amino--pentan-dihydrochlorid]	21.6	2,01					
CCNCC(CCCN(C)CCc1ccccc1)(c1ccccc1)C(C)C (stereo not drawn) [Beispiel 9, 1-Ethylamino-2-isopropyl-2-phenyl-5-(phenethyl)-methyl-amino-pentan-dihydrochlorid]	11.8	3,69					
CCCNCC(CCCN(C)CCc1ccccc1)(c1ccccc1)C(C)C (stereo not drawn) [Beispiel 10, 1-(n-Propyl)amino-2-isopropyl-2-phenyl-5-(phenethyl)-methylamino-pentan-dihydrochlorid]	11.8	3,69	215	100	18	243	
CC(C)NCC(CCCN(C)CCc1ccccc1)(c1ccccc1)C(C)C (stereo not drawn) [Beispiel 11, 1-Isopropylamino-2-isopropyl-2-phenyl-5-(phenethyl)-methylamino-pentan-dihydrochlorid]	6.42						
CCCCNCC(CCCN(C)CCc1ccccc1)(c1ccccc1)C(C)C (stereo not drawn) [Beispiel 12, 1-(n-Butyl)amino-2-isopropyl-2-phenyl-5-(phenethyl)-methylamino-pentan-dihydrochlorid]	22.5	1,93					
CCC(C)NCC(CCCN(C)CCc1ccccc1)(c1ccccc1)C(C)C (stereo not drawn) [Beispiel 13, 1-(sec-Butyl)amino-2-isopropyl-2-phenyl-5-(phenethyl)-methylamino-pentan-dihydrochlorid]	12.9	3,37	215	100	17	237	
CC(C)CNCC(CCCN(C)CCc1ccccc1)(c1ccccc1)C(C)C (stereo not drawn) [Beispiel 14, 1-Isobutylamino-2-isopropyl-2-phenyl-5-(phenethyl)-methylamino-pentan-dihydrochlorid]	14.3	3,04	215	100	15	287	
CCNCC(CCCN(C)CCc1ccc(OC)c(OC)c1)(c1ccc(OC)c(OC)c1)C(C)C (stereo not drawn) [Beispiel 15, 1-Ethylamino-2-isopropyl-2-(3,4-dimethoxyphenyl)-5--[(3,4-dimethoxyphenethyl)methylamino]-pentan-dihydrochlorid]	17.1	2,54					
COc1ccc(CCN(C)CCCC(CNC(C)C)(c2ccc(OC)c(OC)c2)C(C)C)cc1OC (stereo not drawn) [Beispiel 17, 1-Isopropylamino-2-isopropyl-2-(3,4-dimethoxyphenyl)-5--[(3,4-dimethoxyphenethyl)methylamino]-pentan-dihydrochlorid]	26.1	1,67					
CCNCC(CCCN(C)CCc1ccc(OC)c(OC)c1)(c1cc(OC)c(OC)c(OC)c1)C(C)C (stereo not drawn) [Beispiel 20, 1-Ethylamino-2-isopropyl-2-(3,4,5-trimethoxyphenyl)-5--[(3,4-dimethoxyphenethyl)methylamino]-pentan-dihydrochlorid]	12.3	3,54	464	215	38	224	
CCCNCC(CCCN(C)CCc1ccc(OC)c(OC)c1)(c1cc(OC)c(OC)c(OC)c1)C(C)C (stereo not drawn) [Beispiel 21, 1-(n-Propyl)amino-2-isopropyl-2-(3,4,5-trimethoxyphenyl)-5-[(3,4-dimethoxyphenethyl)methylamino]--pentan-dihydrochlorid]	23.4	1,86					
COc1ccc(CCN(C)CCCC(CNC(C)C)(c2cc(OC)c(OC)c(OC)c2)C(C)C)cc1OC (stereo not drawn) [Beispiel 22, 1-Isopropylamino-2-isopropyl-2-(3,4,5-trimethoxyphenyl)-5-[(3,4-dimethoxyphenethyl)methylamino]--pentan-dihydrochlorid]	24.8	1,75					
CCCCNCC(CCCN(C)CCc1ccc(OC)c(OC)c1)(c1cc(OC)c(OC)c(OC)c1)C(C)C (stereo not drawn) [Beispiel 23]	33.8						
CCC(C)NCC(CCCN(C)CCc1ccc(OC)c(OC)c1)(c1cc(OC)c(OC)c(OC)c1)C(C)C (stereo not drawn) [Beispiel 24]	17	2,56					
CCCCNCC(CCCN(C)CCc1ccc(OC)c(OC)c1)(c1ccc(Cl)cc1)C(C)C (stereo not drawn) [Beispiel 27, 1-(n-Butyl)amino-2-isopropyl-2-(4-chlorphenyl)--5-[(3,4-dimethoxyphenethyl)methylamino]-pentan--dihydrochlorid]	21.5	2,02					
CNCC(CCCN(C)CCc1ccccc1)c1ccccc1 (stereo not drawn) [Beispiel 28, 1-Methylamino-2-phenyl-5-(phenethyl)methylamino--pentan]	11.6	3,75					
CNCC(CCCN(C)CCc1ccccc1)(c1ccccc1)C(C)C (stereo not drawn) [Beispiel 30, 1-Methylamino-2-isopropyl-2-phenyl-5-(phenethyl)methyl-amino-pentan-dihydrochlorid]	11	3,96	464	215	42	499	
CNCC(CCCN(C)CCc1ccc(OC)c(OC)c1)(c1ccc(OC)c(OC)c1)C(C)C (stereo not drawn) [Beispiel 32, 1-Methylamino-2-isopropyl-2-(3,4-dimethoxyphenyl)-5--[(3,4-dimethoxyphenethyl)methylamino]-pentan-dihydrochlorid]	33.8						
CNCC(CCCN(C)CCc1ccc(OC)c(OC)c1)(c1cc(OC)c(OC)c(OC)c1)C(C)C (stereo not drawn) [Beispiel 33, 1-Methylamino-2-isopropyl-2-(3,4,5-trimethoxyphenyl)--5-[(3,4-dimethoxyphenethyl)methylamino]-pentan-dihydrochlorid]	21.5	2,02					
CN(C)CC(CCCN(C)CCc1ccccc1)c1ccccc1 (stereo not drawn) [Beispiel 34, 1-Dimethylamino-2-phenyl-5-(phenethyl)methylamino--pentan]	14.7	2,96					
CN(C)CC(C)(CCCN(C)CCc1ccccc1)c1ccccc1 (stereo not drawn) [Beispiel 35, 1-Dimethylamino-2-methyl-2-phenyl-5-(phenethyl)-methyl-amino-pentan]	8.02	5,42					
CCCCC(CCCN(C)CCc1ccccc1)(CN(C)C)c1ccccc1 (stereo not drawn) [Beispiel 36, 1-Dimethylamino-2-(n-butyl)-2-phenyl-5-(phenethyl)--methylamino-pentan]	8.66	5,02					
CC(C)C(CCCN(C)CCc1ccccc1)(CN(C)C)c1ccccc1 (stereo not drawn) [Beispiel 37, 1-Dimethylamino-2-isopropyl-2-phenyl-5-(phenethyl)--methylamino-pentan-dihydrochlorid]	7.99	5,44	100	46.4	13	423	
COc1ccc(CCN(C)CCCC(CN(C)C)(c2ccc(OC)c(OC)c2)C(C)C)cc1OC (stereo not drawn) [Beispiel 38, 1-Dimethylamino-2-isopropyl-2-(3,4-dimethoxyphenyl)--5-[(3,4-dimethoxyphenethyl)methylamino]-pentan-dihydrochlorid]	27.8	1,57					
CCCCCCCCCCCCC(CCCN(C)CCc1ccccc1)(CN(C)C)c1ccccc1 (stereo not drawn) [Beispiel 40, 1-Dimethylamino-2-(n-dodecyl)-2-phenyl-5-(phenethyl)methylamino-pentan]	6.88	6,32					
C=CC1CN2CCC1CC2C(O)c1ccnc2ccc(OC)cc12 (stereo not drawn) [Chinidin, reference compound]	43.5	≡ 1,00	464			129	ll
